Laboratory results taken from ChEMBL document CHEMBL3217409 (Medchemcomm, 2011).
Activity calls are given as the source filed them. The calls are words filed in the database; no cut-off is given here.

What was measured:
[1] = target: T1, Melatonin receptor type 1B (Homo sapiens, UniProt P49286); test: Displacement of 2-[125I]-iodomelatonin from human MT2 receptor expressed in CHO cells; type: cell-based
T1 sequence (P49286 whole entry): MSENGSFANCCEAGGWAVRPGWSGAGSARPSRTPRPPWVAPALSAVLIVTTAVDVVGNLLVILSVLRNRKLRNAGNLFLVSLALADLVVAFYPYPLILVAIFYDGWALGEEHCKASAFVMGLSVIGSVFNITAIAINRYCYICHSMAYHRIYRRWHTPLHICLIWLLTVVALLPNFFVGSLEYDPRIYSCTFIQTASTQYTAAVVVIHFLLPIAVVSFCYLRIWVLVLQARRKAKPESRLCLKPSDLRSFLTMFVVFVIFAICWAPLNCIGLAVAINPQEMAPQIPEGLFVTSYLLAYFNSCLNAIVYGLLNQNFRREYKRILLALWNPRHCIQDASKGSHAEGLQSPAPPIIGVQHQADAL

[2] = target: T2, Melatonin receptor type 1A (Homo sapiens, UniProt P48039); test: Displacement of 2-[125I]-iodomelatonin from human MT1 receptor expressed in CHO cells; type: cell-based
T2 sequence (P48039 whole entry): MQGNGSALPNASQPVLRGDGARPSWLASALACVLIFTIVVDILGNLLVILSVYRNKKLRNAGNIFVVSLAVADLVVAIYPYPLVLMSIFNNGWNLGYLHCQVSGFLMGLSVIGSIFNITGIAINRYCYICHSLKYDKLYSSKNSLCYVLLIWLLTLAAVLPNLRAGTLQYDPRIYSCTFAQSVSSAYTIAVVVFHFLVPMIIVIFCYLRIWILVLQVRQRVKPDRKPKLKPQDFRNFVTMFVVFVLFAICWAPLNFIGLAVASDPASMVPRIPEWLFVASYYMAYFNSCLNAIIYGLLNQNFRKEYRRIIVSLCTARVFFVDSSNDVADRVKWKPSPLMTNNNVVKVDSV

[3] = target: T3, Melatonin receptor type 1B (Homo sapiens) (UniProt P49286); test: Intrinsic activity at human MT2 receptor expressed in CHO cells; type: cell-based
T3 sequence (whole entry): T1 sequence (P49286 whole entry)

Homo sapiens = species on record: Homo sapiens; test: Selectivity ratio of Ki for human MT1 receptor to Ki for human MT2 receptor
[4] = target: T2, Melatonin receptor type 1A; test: Antagonist activity at human MT1 receptor expressed in CHO cells assessed as inhibition of melatonin-induced activity at 10 to 100 nM; type: cell-based
[5] = target: T2, Melatonin receptor type 1A; test: Intrinsic activity at human MT1 receptor expressed in CHO cells; type: cell-based
[6] = target: T3, Melatonin receptor type 1B (Homo sapiens); test: Antagonist activity at human MT2 receptor expressed in CHO cells assessed as inhibition of melatonin-induced activity at 10 to 100 nM; type: cell-based

Ki [1] [nM]	Ki [2] [nM]	Activity [3]	Ratio Ki (Homo sapiens)	inhibition [4]	Activity [5]	inhibition [6]	SMILES
5.75	182						COc1ccc2[nH]c(Cn3ccc4ccccc43)c(CCNC(C)=O)c2c1
21.4	251						COc1ccc2[nH]c(CN3CCc4ccccc4C3)c(CCNC(C)=O)c2c1
2.24	282	inactive	124	Active	inactive	Active	COc1ccc2[nH]c(CN3Cc4ccccc4C3)c(CCNC(C)=O)c2c1
			95				COc1ccc2[nH]c(CN3CCc4ccccc43)c(CCNC(C)=O)c2c1

Second part, the compound before the results:

SMILES	Ki [1] [nM]	Ki [2] [nM]	Activity [3]	Ratio Ki (Homo sapiens)	inhibition [4]	Activity [5]	inhibition [6]
COc1ccc2[nH]c(CN3Cc4ccccc4C3)c(CCNC(=O)C3CC3)c2c1	33.9	61.7					
C=CCC(=O)NCCc1c(CN2Cc3ccccc3C2)[nH]c2ccc(OC)cc12	9.33	24					
COc1ccc2[nH]c(Cn3ccc4ccccc43)c(CCNC(=O)C3CCC3)c2c1	81.3	57.5					
COc1ccc2[nH]c(CN3Cc4ccccc4C3)c(CCNC(=O)C3CCC3)c2c1	200	112					
CCC(=O)NCCc1c(CN2Cc3ccccc3C2)[nH]c2ccc(OC)cc12	3.72	5.62					
CCC(=O)NCCCc1cc(OC)ccc1OCc1cccc(OC)c1	1.7	1350		790			
